Measured values published in publication PMC6001238, “Iterative Chemical Engineering of Vancomycin Leads to Novel Vancomycin Analogs With a High in Vitro Therapeutic Index” (Frontiers in Microbiology, 2018).
Values after ≈ are worked out from the molar mass of the structure shown.

How the values were obtained:
[1] = test system: E. faecalis VSE 1; experiment: MIC, broth microdilution, vancomycin-sensitive E. faecalis (VSE 1); format: cell-based, Enterococcus faecalis; conditions: for MIC: Enterococcus faecalis VSE 1 (vancomycin-sensitive), read-out: MIC; for MIC-fold improvement vs. vancomycin: VSE 1, ratio of MIC of vancomycin and MIC of analogue
Summary of the method: (§1)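 Broth microdilution per CLSI; controls = ultrapure water, non-inoculated broth. One set: + vancomycin 10 μM final alongside test analogue/control drug.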

[2] = test system: E. faecalis VRE 6; experiment: MIC, broth microdilution, vancomycin-resistant E. faecalis VRE 6 (VanA); format: cell-based, Enterococcus faecalis; conditions: for MIC: Enterococcus faecalis VRE 6 (vancomycin-resistant), read-out: MIC; for MIC-fold improvement vs. vancomycin: VRE 6, ratio of MIC of vancomycin and MIC of analogue
Summary of the method: as §1

[3] = test system: E. faecalis VRE 53; experiment: MIC, broth microdilution, vancomycin-resistant E. faecalis VRE 53 (VanA); format: cell-based, Enterococcus faecalis; conditions: for MIC: Enterococcus faecalis VRE 53 (vancomycin-resistant), read-out: MIC; for MIC-fold improvement vs. vancomycin: VRE 53, ratio of MIC of vancomycin and MIC of analogue
Summary of the method: as §1

[4] = test system: E. faecalis VRE 29; experiment: MIC, broth microdilution, vancomycin-resistant E. faecalis VRE 29 (VanA); format: cell-based, Enterococcus faecalis; conditions: for MIC: Enterococcus faecalis VRE 29 (vancomycin-resistant), read-out: MIC; for MIC-fold improvement vs. vancomycin: VRE 29, ratio of MIC of vancomycin and MIC of analogue
Summary of the method: as §1

[5] = test system: E. faecalis VRE 37; experiment: MIC, broth microdilution, vancomycin-resistant E. faecalis VRE 37 (VanA); format: cell-based, Enterococcus faecalis; conditions: for MIC: Enterococcus faecalis VRE 37 (vancomycin-resistant), read-out: MIC; for MIC-fold improvement vs. vancomycin: VRE 37, ratio of MIC of vancomycin and MIC of analogue
Summary of the method: as §1

[6] = test system: Murine leukemia (L1210) cells; experiment: Cytostatic activity, L1210 cell proliferation; format: cell-based; conditions: mean ± SD of three experiments; highest concentration tested 250 µM; 2 days; read-out: Toxicity (IC50) L1210
Summary of the method: (§2)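 Suspensions (300,000–500,000 cells/mL) combined with equal volumes of diluted compound; 37°C; L1210 2 d / CEM 3 d / HeLa 4 d; counted by Coulter counter; IC50 vs untreated wells.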

[7] = test system: human T-lymphocyte (CEM) cells; experiment: Cytostatic activity, CEM cell proliferation; format: cell-based; conditions: mean ± SD of three experiments; highest concentration tested 250 µM; 3 days; read-out: Toxicity (IC50) CEM
Summary of the method: as §2

[8] = test system: human cervix carcinoma (HeLa) cells; experiment: Cytostatic activity, HeLa cell proliferation; format: cell-based; conditions: mean ± SD of three experiments; highest concentration tested 250 µM; 4 days; read-out: Toxicity (IC50) HeLa
Summary of the method: as §2

[9] = test system: L1210, CEM and HeLa cell lines; experiment: Cytostatic activity, average or summary over L1210, CEM and HeLa; format: cell-based; conditions: average of L1210, CEM and HeLa; read-out: Toxicity (IC50) Average
Summary of the method: as §2

[10] = test system: S. aureus VSSA (ATCC 6538); experiment: MIC, broth microdilution, vancomycin-sensitive S. aureus (VSSA/MSSA, ATCC 6538); format: cell-based, Staphylococcus aureus; conditions: for MIC: Staphylococcus aureus VSSA, read-out: MIC; for MIC-fold improvement vs. vancomycin: VSSA, ratio of MIC of vancomycin and MIC of analogue
Summary of the method: as §1

[11] = test system: S. aureus VISA/HIP5827; experiment: MIC, broth microdilution, vancomycin-intermediate S. aureus VISA HIP5827; format: cell-based, Staphylococcus aureus; conditions: for MIC: Staphylococcus aureus VISA/HIP5827, read-out: MIC; for MIC-fold improvement vs. vancomycin: VISA/HIP5827, ratio of MIC of vancomycin and MIC of analogue
Summary of the method: as §1

[12] = test system: S. aureus VRSA; experiment: MIC, broth microdilution, vancomycin-resistant S. aureus (VRSA); format: cell-based, Staphylococcus aureus; conditions: for MIC: Staphylococcus aureus VRSA, read-out: MIC; for MIC-fold improvement vs. vancomycin: VRSA, ratio of MIC of vancomycin and MIC of analogue
Summary of the method: as §1

[13] = test system: MRSA KS2; experiment: MIC, broth microdilution, MRSA KS2; format: cell-based, Staphylococcus aureus; conditions: for MIC-fold improvement vs. vancomycin: MRSA KS2, ratio of MIC of vancomycin and MIC of analogue; for MIC: Staphylococcus aureus MRSA KS2, read-out: MIC
Summary of the method: as §1

[14] = test system: MRSA KS6; experiment: MIC, broth microdilution, MRSA KS6; format: cell-based, Staphylococcus aureus; conditions: for MIC-fold improvement vs. vancomycin: MRSA KS6, ratio of MIC of vancomycin and MIC of analogue; for MIC: Staphylococcus aureus MRSA KS6, read-out: MIC
Summary of the method: as §1

[15] = test system: MRSA KS89; experiment: MIC, broth microdilution, MRSA KS89; format: cell-based, Staphylococcus aureus; conditions: for MIC-fold improvement vs. vancomycin: MRSA KS8, ratio of MIC of vancomycin and MIC of analogue; for MIC: Staphylococcus aureus MRSA KS8, read-out: MIC
Summary of the method: as §1

[16] = test system: MRSA KS1; experiment: MIC, broth microdilution, MRSA KS1; format: cell-based, Staphylococcus aureus; conditions: for MIC-fold improvement vs. vancomycin: MRSA KS1, ratio of MIC of vancomycin and MIC of analogue; for MIC: Staphylococcus aureus MRSA KS1, read-out: MIC
Summary of the method: as §1

Compound | MIC [1] [µM] | MIC-fold improvement vs. vancomycin [1] | MIC [2] [µM] | MIC-fold improvement vs. vancomycin [2] | MIC [3] [µM] | MIC-fold improvement vs. vancomycin [3] | MIC [4] [µM] | MIC-fold improvement vs. vancomycin [4] | MIC [5] [µM] | IC50 [6] [µM] | IC50 [7] [µM] | IC50 [8] [µM] | IC50 [9] [µM] | MIC [10] [µM] | MIC-fold improvement vs. vancomycin [10] | MIC [11] [µM] | MIC-fold improvement vs. vancomycin [11] | MIC-fold improvement vs. vancomycin [12] | MIC-fold improvement vs. vancomycin [13] | MIC [13] [µM] | further results
CCCCCCCc1ccc(C(=O)NCCCNC(=O)C2NC(=O)C3NC(=O)C(NC(=O)C4NC(=O)C(CC(N)=O)NC(=O)C(NC(=O)C(CC(C)C)NC)C(O)c5ccc(c(Cl)c5)Oc5cc4cc(c5OC4OC(CO)C(O)C(O)C4OC4CC(C)(N)C(O)C(C)O4)Oc4ccc(cc4Cl)C3O)c3ccc(O)c(c3)-c3c(O)cc(O)cc32)cc1 (centres unmarked) [Vanc-31] | 0.39 (≈ 0.666 µg/mL) | 4 | 0.39 (≈ 0.666 µg/mL) | 513 | 3.13 (≈ 5.35 µg/mL) | 128 | 1.56 (≈ 2.66 µg/mL) | 256 | 1.56 (≈ 2.66 µg/mL) | 8.8 ± 0.6 | 17 ± 5 | 86 ± 14 | 37 | 0.20 (≈ 0.342 µg/mL) | 4 | 0.05 (≈ 0.0854 µg/mL) | 128 | 128 | 4 | 0.20 (≈ 0.342 µg/mL) | MIC-fold improvement vs. vancomycin [5]: 256; MIC [12]: 0.78 µM (≈ 1.33 µg/mL); MIC-fold improvement vs. vancomycin [14]: 4; MIC [14]: 0.20 µM (≈ 0.342 µg/mL); MIC-fold improvement vs. vancomycin [15]: 4; MIC [15]: 0.20 µM (≈ 0.342 µg/mL); MIC-fold improvement vs. vancomycin [16]: 1; MIC [16]: 0.78 µM (≈ 1.33 µg/mL)
CN[C@H](CC(C)C)C(=O)N[C@H]1C(=O)N[C@@H](CC(N)=O)C(=O)N[C@H]2C(=O)N[C@H]3C(=O)N[C@H](C(=O)N[C@H](C(=O)NCCNC(=O)CC(c4ccccc4)c4ccccc4)c4cc(O)cc(O)c4-c4cc3ccc4O)[C@H](O)c3ccc(c(Cl)c3)Oc3cc2cc(c3O[C@@H]2O[C@H](CO)[C@@H](O)[C@H](O)[C@H]2O[C@H]2C[C@](C)(N)[C@H](O)[C@H](C)O2)Oc2ccc(cc2Cl)[C@H]1O [Vanc-47] | 0.78 (≈ 1.33 µg/mL) | 2 | 6.25 (≈ 10.6 µg/mL) | 32 | 50 (≈ 85 µg/mL) | 8 | 25 (≈ 42.5 µg/mL) | 16 | 25 (≈ 42.5 µg/mL) | ≥ 250 | 240 ± 4 | 106 ± 14 | 199 | 0.78 (≈ 1.33 µg/mL) | 1 | 1.56 (≈ 2.65 µg/mL) | 4 | 32 | 2 | 0.39 (≈ 0.663 µg/mL) | MIC-fold improvement vs. vancomycin [5]: 16; MIC [12]: 3.13 µM (≈ 5.32 µg/mL); MIC-fold improvement vs. vancomycin [14]: 0.25; MIC [14]: 3.13 µM (≈ 5.32 µg/mL); MIC-fold improvement vs. vancomycin [15]: 2; MIC [15]: 0.39 µM (≈ 0.663 µg/mL); MIC-fold improvement vs. vancomycin [16]: 2; MIC [16]: 0.39 µM (≈ 0.663 µg/mL)
CNC(CC(C)C)C(=O)NC1C(=O)NC(CC(N)=O)C(=O)NC2C(=O)NC3C(=O)NC(C(=O)NC(C(=O)NCCCNC(=O)c4cc5ccccc5s4)c4cc(O)cc(O)c4-c4cc3ccc4O)C(O)c3ccc(c(Cl)c3)Oc3cc2cc(c3OC2OC(CO)C(O)C(O)C2OC2CC(C)(N)C(O)C(C)O2)Oc2ccc(cc2Cl)C1O (centres unmarked) [Vanc-26] | 0.20 (≈ 0.333 µg/mL) | 8 | 3.13 (≈ 5.21 µg/mL) | 64 | 25 (≈ 41.6 µg/mL) | 16 | 6.25 (≈ 10.4 µg/mL) | 64 | 12.5 (≈ 20.8 µg/mL) | > 250 | > 250 | 42 ± 23 | 181 | 0.39 (≈ 0.65 µg/mL) | 2 | 0.39 (≈ 0.65 µg/mL) | 16 | 32 | 2 | 0.39 (≈ 0.65 µg/mL) | MIC-fold improvement vs. vancomycin [14]: 2; MIC [14]: 0.39 µM (≈ 0.65 µg/mL); MIC-fold improvement vs. vancomycin [15]: 2; MIC [15]: 0.39 µM (≈ 0.65 µg/mL); MIC-fold improvement vs. vancomycin [16]: 2; MIC [16]: 0.39 µM (≈ 0.65 µg/mL)
CN[C@H](CC(C)C)C(=O)N[C@H]1C(=O)N[C@@H](CC(N)=O)C(=O)N[C@H]2C(=O)N[C@H]3C(=O)N[C@H](C(=O)N[C@H](C(=O)NCC(=O)Nc4ccc([N+](=O)[O-])cc4)c4cc(O)cc(O)c4-c4cc3ccc4O)[C@H](O)c3ccc(c(Cl)c3)Oc3cc2cc(c3O[C@@H]2O[C@H](CO)[C@@H](O)[C@H](O)[C@H]2O[C@H]2C[C@](C)(N)[C@H](O)[C@H](C)O2)Oc2ccc(cc2Cl)[C@H]1O [Vanc-67] | 0.78 (≈ 1.27 µg/mL) | 2 | 12.5 (≈ 20.3 µg/mL) | 16 | 25 (≈ 40.7 µg/mL) | 16 | 25 (≈ 40.7 µg/mL) | 16 | 25 (≈ 40.7 µg/mL) | ≥ 250 | 165 ± 32 | 52 ± 19 | 156 | 0.78 (≈ 1.27 µg/mL) | 1 | 1.56 (≈ 2.54 µg/mL) | 4 | 16 | 2 | 0.39 (≈ 0.634 µg/mL) | MIC-fold improvement vs. vancomycin [5]: 16; MIC [12]: 6.25 µM (≈ 10.2 µg/mL); MIC-fold improvement vs. vancomycin [14]: 1; MIC [14]: 0.78 µM (≈ 1.27 µg/mL); MIC-fold improvement vs. vancomycin [15]: 1; MIC [15]: 0.78 µM (≈ 1.27 µg/mL); MIC-fold improvement vs. vancomycin [16]: 1; MIC [16]: 0.78 µM (≈ 1.27 µg/mL)
